Molecules are shown by their SMILES.

Eight molecules from ChEMBL document CHEMBL5532651, “HDAC specificity and kinase off-targeting by purine-benzohydroxamate anti-hematological tumor agents” (Eur J Med Chem, 2024) can be followed below.

The test system of series [1] is MCF7. Kind of series: cells. The settings on record: Homo sapiens. Type of series: functional, cell-based.
The subject of series [2] is HCT-116. Kind of series: cells. The conditions noted are these: Homo sapiens.
In series [3] the test system is Jurkat. Kind of series: cells. The conditions noted are these: Homo sapiens.
The test system of series [4] is NAMALVA. Kind of series: cells. The settings on record: Homo sapiens.
Series [5] deals with T1, CYP1A2 (Homo sapiens, UniProt P05177).
T1 sequence (P05177 whole entry): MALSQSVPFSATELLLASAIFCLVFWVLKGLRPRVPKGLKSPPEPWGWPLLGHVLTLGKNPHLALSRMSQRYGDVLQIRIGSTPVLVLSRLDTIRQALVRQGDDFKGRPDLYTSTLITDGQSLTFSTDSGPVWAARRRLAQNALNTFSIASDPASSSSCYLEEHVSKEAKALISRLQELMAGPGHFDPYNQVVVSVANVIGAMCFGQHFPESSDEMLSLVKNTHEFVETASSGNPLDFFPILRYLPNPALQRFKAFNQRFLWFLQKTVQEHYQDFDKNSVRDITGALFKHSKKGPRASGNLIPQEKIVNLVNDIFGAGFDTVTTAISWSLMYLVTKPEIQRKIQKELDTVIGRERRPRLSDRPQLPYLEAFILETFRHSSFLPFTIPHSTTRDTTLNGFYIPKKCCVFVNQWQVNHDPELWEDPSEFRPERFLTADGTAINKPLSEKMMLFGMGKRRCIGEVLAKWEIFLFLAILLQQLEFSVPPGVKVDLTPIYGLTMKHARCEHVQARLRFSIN
Kind of series: Inhibition of CYP1A2 in liver microsomes (unknown origin) at 10 uM incubated for 10 mins relative to control. Type of series: ADME, Microsome. On the technique in general: Microsomes from liver hold many membrane-bound enzymes, among them those of drug oxidation.

Series [6] concerns the target CYP2C9 (Homo sapiens, UniProt P11712). Kind of series: Inhibition of CYP2C9 in liver microsomes (unknown origin) at 10 uM incubated for 10 mins relative to control. Type of series: ADME, Microsome.
Series [7] has as its target CYP2D6 (Homo sapiens, UniProt P10635). Kind of series: Inhibition of CYP2D6 in liver microsomes (unknown origin) at 10 uM incubated for 10 mins relative to control. Format: ADME, Microsome.
Series [8] has as its target T1, CYP1A2. Kind of series: Inhibition of CYP1A2 in liver microsomes (unknown origin) at 40 uM incubated for 10 mins relative to control. Format: ADME, Microsome.

Chain of CYP2D6 (P10635 whole entry): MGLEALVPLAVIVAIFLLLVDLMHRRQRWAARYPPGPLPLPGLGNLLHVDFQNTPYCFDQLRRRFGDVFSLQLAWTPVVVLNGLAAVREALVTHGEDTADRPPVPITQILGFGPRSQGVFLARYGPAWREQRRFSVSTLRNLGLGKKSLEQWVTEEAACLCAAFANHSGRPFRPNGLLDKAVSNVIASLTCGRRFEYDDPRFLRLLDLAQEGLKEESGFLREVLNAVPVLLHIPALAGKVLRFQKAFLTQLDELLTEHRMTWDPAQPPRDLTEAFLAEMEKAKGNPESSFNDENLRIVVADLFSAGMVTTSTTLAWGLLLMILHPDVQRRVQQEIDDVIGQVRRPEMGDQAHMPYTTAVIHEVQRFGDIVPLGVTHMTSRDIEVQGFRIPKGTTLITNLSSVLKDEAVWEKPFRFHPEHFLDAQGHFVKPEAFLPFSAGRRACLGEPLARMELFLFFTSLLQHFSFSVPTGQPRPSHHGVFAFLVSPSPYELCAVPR
Chain of CYP2C9 (P11712 whole entry): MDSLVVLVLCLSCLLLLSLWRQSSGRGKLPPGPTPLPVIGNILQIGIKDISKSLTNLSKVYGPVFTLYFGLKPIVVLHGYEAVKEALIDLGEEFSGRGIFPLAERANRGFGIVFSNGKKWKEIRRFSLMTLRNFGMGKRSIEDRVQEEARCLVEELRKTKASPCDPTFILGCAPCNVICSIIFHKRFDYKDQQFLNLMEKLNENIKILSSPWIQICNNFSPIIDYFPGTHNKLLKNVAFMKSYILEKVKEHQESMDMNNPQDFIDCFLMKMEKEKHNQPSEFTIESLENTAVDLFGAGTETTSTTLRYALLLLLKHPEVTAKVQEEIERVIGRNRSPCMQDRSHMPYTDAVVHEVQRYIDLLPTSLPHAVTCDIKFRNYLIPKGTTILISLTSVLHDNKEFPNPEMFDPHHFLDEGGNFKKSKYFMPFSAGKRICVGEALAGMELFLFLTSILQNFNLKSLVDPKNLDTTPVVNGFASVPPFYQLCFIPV

`O=C(NO)c1ccc(Cn2cnc3c(O)ncnc32)cc1`: the IC50 in series [1], in series [2], in series [3] and in series [4] was over 50 µM throughout.
For `C=C[C@H]1C[N@@]2CC[C@H]1C[C@@H]2[C@@H](O)c1ccnc2ccc(OC)cc12` [QUINIDINE], the results for the inhibition at 10 min, 10 µM in series [5], in series [6] and in series [7] were 10%, 10% and 86%, respectively.
For `COC(=O)c1ccc(Cn2cnc3c(Nc4ccc(Cl)c(C(F)(F)F)c4)ncnc32)cc1`, the IC50 in series [1], in series [2], in series [3] and in series [4] was over 50 µM throughout.
Turning to `COc1cc(Nc2ncnc3c2ncn3Cc2ccc(C(=O)NO)cc2)cc(OC)c1OC`, the figures for the IC50 in series [1], in series [2] and in series [4] were over 50 µM, over 50 µM and 0.8 µM, respectively.
With `O=C(NO)c1cccc(Cn2cnc3c(O)ncnc32)c1`, the IC50 in series [1], in series [2], in series [3] and in series [4] was over 50 µM throughout.
Turning to `Cc1nc2c([nH]1)c(=O)n(C)c(=O)n2Cc1ccco1` [FURAFYLLINE], the inhibition at 10 min, 10 µM in series [6] and in series [7] was 10% in each case. This molecule returned an inhibition at 10 min, 40 µM in series [8] of 78%.
As to `Cc1ccc(Nc2ncnc3c2ncn3Cc2ccc(C(=O)NO)cc2)cc1S(N)(=O)=O`, the IC50 in series [1], in series [2], in series [3] and in series [4] was over 50 µM throughout.
As for `O=C(NO)c1ccc(Cn2cnc3c(Nc4ccccc4)ncnc32)cc1`, the IC50 in series [1] was over 50 µM; in series [2], over 50 µM; in series [3], 0.2 µM; in series [4] it was 0.13 µM.

The IC50 is the concentration that inhibits the measured activity by half. Lower therefore signals inhibition by little substance. One may read the inhibition as the percentage by which the read-out fell short of the control.
